Laboratory results published in the supplement of paper PMC9262897, “Low-cost anti-mycobacterial drug discovery using engineered E. coli” (Nature Communications, 2022).
± gives the standard deviation of the averaged measurements.

Experiments:
[1] = system: E. coli wild-type control; assay: growth (OD600 after 10 h); higher = more growth
Procedure: (§1)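 Chemical-genetic validation profiles: TESEC strains (Mtb Asd or DapB, arabinose-inducible) or the wild-type control grown in a two-dimensional dilution series of drug (µM) and arabinose. Growth is read as OD600 after 10 h in triplicate.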

[2] = system: E. coli TESEC strain (Mtb target enzyme); assay: growth (OD600 after 10 h); higher = more growth
Procedure: as §1

[3] = system: E. coli TESEC Mtb Alr; assay: growth (OD600 after 10 h, mean); higher = more growth;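 also: E. coli lacking its native Alr, complemented by codon-optimized Mtb Alr under a feedback-controlled arabinose-inducible plasmid circuit, grown in defined medium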
Procedure: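 TESEC Mtb Alr E. coli grown in a two-dimensional dilution series of drug (µM) and arabinose (12 to 1e8 nM). Growth is read as OD600 after 10 h; values are means of 3 biological replicates.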

N=C(N)c1ccc(OCCCCCOc2ccc(C(=N)N)cc2)cc1 [Pentamidine] (TESEC target enzyme: Mtb DapB)
growth
Settings	drug 0.7 µM	drug 1.5 µM	drug 3.5 µM	drug 7.8 µM	drug 17.6 µM	drug 39.5 µM	drug 88.9 µM
[1], arabinose 15560 nM	0.275 ± 0.13	0.32 ± 0.013	0.321 ± 0.013	0.289 ± 0.013	0.269 ± 0.04	0.258 ± 0.011	–
[1], arabinose 28008 nM	0.317 ± 0.024	0.309 ± 0.021	0.301 ± 0.023	0.293 ± 0.029	0.231 ± 0.02	0.259 ± 0.0096	–
[1], arabinose 50414 nM	0.321 ± 0.028	0.318 ± 0.027	0.304 ± 0.022	0.291 ± 0.04	0.235 ± 0.016	0.233 ± 0.025	–
[1], arabinose 90744 nM	0.29 ± 0.028	0.289 ± 0.047	0.305 ± 0.032	0.312 ± 0.024	0.261 ± 0.021	0.246 ± 0.013	–
[1], arabinose 163340 nM	0.311 ± 0.036	0.319 ± 0.048	0.308 ± 0.024	0.271 ± 0.089	0.257 ± 0.0089	0.256 ± 0.0095	–
[1], arabinose 294012 nM	0.207 ± 0.039	0.29 ± 0.016	0.277 ± 0.05	0.313 ± 0.034	0.271 ± 0.0086	0.249 ± 0.022	–
[1], arabinose 529221 nM	0.168 ± 0.044	0.225 ± 0.038	0.257 ± 0.04	0.302 ± 0.038	0.257 ± 0.036	0.251 ± 0.019	–
[1], arabinose 952599 nM	0.163 ± 0.046	0.141 ± 0.027	0.201 ± 0.037	0.236 ± 0.037	0.221 ± 0.0073	0.239 ± 0.025	0.206 ± 0.046
[1], arabinose 1714678 nM	0.137 ± 0.028	0.161 ± 0.043	0.193 ± 0.0058	0.18 ± 0.012	0.179 ± 0.027	0.231 ± 0.052	0.161 ± 0.0092
[1], arabinose 3086420 nM	0.13 ± 0.011	0.149 ± 0.0075	0.156 ± 0.032	0.185 ± 0.017	0.113 ± 0.015	0.145 ± 0.018	0.157 ± 0.018
[1], arabinose 5555556 nM	0.125 ± 0.011	0.126 ± 0.014	0.177 ± 0.033	0.203 ± 0.017	0.12 ± 0.013	0.136 ± 0.028	0.16 ± 0.011
[1], arabinose 10000000 nM	0.115 ± 0.0078	0.151 ± 0.007	0.13 ± 0.012	0.16 ± 0.0096	0.129 ± 0.021	0.131 ± 0.06	–
[2], arabinose 15560 nM	0.117 ± 0.018	0.131 ± 0.029	–	–	–	–	–
[2], arabinose 28008 nM	0.207 ± 0.0099	0.18 ± 0.011	–	–	–	–	–
[2], arabinose 50414 nM	0.186 ± 0.02	0.187 ± 0.011	–	–	–	–	–
[2], arabinose 90744 nM	0.207 ± 0.019	0.195 ± 0.017	–	–	–	–	–
[2], arabinose 163340 nM	0.225 ± 0.01	0.21 ± 0.017	–	–	–	–	–
[2], arabinose 294012 nM	0.218 ± 0.017	0.235 ± 0.014	–	–	–	–	–
[2], arabinose 529221 nM	0.208 ± 0.016	0.192 ± 0.026	–	–	–	–	–
[2], arabinose 952599 nM	0.2 ± 0.003	0.225 ± 0.015	–	–	–	–	–
[2], arabinose 1714678 nM	0.16 ± 0.0023	0.182 ± 0.038	–	–	–	–	–
[2], arabinose 3086420 nM	0.133 ± 0.011	0.153 ± 0.0066	–	–	–	–	–
[2], arabinose 5555556 nM	0.131 ± 0.012	0.146 ± 0.011	–	–	–	–	–
[2], arabinose 10000000 nM	0.127 ± 0.019	0.124 ± 0.021	–	–	–	–	–

CC/C(=C(/CC)c1ccc(O)cc1)c1ccc(O)cc1 [Diethylstilbestrol] (TESEC target enzyme: Mtb Asd)
growth
Settings	drug 0.7 µM	drug 1.5 µM	drug 3.5 µM	drug 7.8 µM	drug 17.6 µM	drug 39.5 µM	drug 88.9 µM
[1], arabinose 15560 nM	0.278 ± 0.025	0.244 ± 0.02	0.211 ± 0.021	0.134 ± 0.021	0.106 ± 0.062	0.077 ± 0.043	–
[1], arabinose 28008 nM	0.283 ± 0.023	0.225 ± 0.016	0.192 ± 0.0041	0.208 ± 0.13	0.109 ± 0.08	0.0887 ± 0.052	–
[1], arabinose 50414 nM	0.271 ± 0.046	0.23 ± 0.0031	0.192 ± 0.008	0.149 ± 0.038	0.185 ± 0.16	0.0973 ± 0.035	–
[1], arabinose 90744 nM	0.282 ± 0.023	0.238 ± 0.016	0.205 ± 0.007	0.155 ± 0.033	0.0906 ± 0.065	0.075 ± 0.027	–
[1], arabinose 163340 nM	0.245 ± 0.024	0.22 ± 0.013	0.207 ± 0.0089	0.163 ± 0.052	0.11 ± 0.03	0.108 ± 0.053	–
[1], arabinose 294012 nM	0.224 ± 0.025	0.222 ± 0.0093	0.201 ± 0.008	0.151 ± 0.035	0.0517 ± 0.0034	0.0476 ± 0.00066	–
[1], arabinose 529221 nM	0.189 ± 0.013	0.16 ± 0.007	0.141 ± 0.015	0.123 ± 0.014	0.0936 ± 0.042	0.139 ± 0.059	–
[1], arabinose 952599 nM	0.139 ± 0.03	0.112 ± 0.0031	0.103 ± 0.013	0.132 ± 0.01	0.0957 ± 0.02	0.0506 ± 0.0019	0.108 ± 0.054
[1], arabinose 1714678 nM	0.118 ± 0.0057	0.104 ± 0.0052	0.106 ± 0.0022	0.112 ± 0.017	0.124 ± 0.024	0.147 ± 0.1	0.119 ± 0.015
[1], arabinose 3086420 nM	0.119 ± 0.032	0.108 ± 0.0038	0.114 ± 0.0031	0.103 ± 0.0093	0.0984 ± 0.038	0.114 ± 0.03	0.111 ± 0.048
[1], arabinose 5555556 nM	0.128 ± 0.019	0.112 ± 0.0045	0.119 ± 0.0052	0.119 ± 0.0086	0.0951 ± 0.04	0.0913 ± 0.011	0.0621 ± 0.019
[1], arabinose 10000000 nM	0.122 ± 0.01	0.118 ± 0.015	0.1329 ± 0.00094	0.118 ± 0.017	0.13 ± 0.013	0.117 ± 0.049	–
[2], arabinose 15560 nM	0.236 ± 0.0089	0.214 ± 0.012	–	–	–	–	–
[2], arabinose 28008 nM	0.223 ± 0.071	0.157 ± 0.057	–	–	–	–	–
[2], arabinose 50414 nM	0.238 ± 0.078	0.191 ± 0.0078	–	–	–	–	–
[2], arabinose 90744 nM	0.252 ± 0.091	0.218 ± 0.026	–	–	–	–	–
[2], arabinose 163340 nM	0.254 ± 0.047	0.227 ± 0.018	–	–	–	–	–
[2], arabinose 294012 nM	0.29 ± 0.1	0.222 ± 0.017	–	–	–	–	–
[2], arabinose 529221 nM	0.207 ± 0.011	0.214 ± 0.018	–	–	–	–	–
[2], arabinose 952599 nM	0.2 ± 0.011	0.228 ± 0.0099	–	–	–	–	–
[2], arabinose 1714678 nM	0.2038 ± 0.002	0.208 ± 0.026	–	–	–	–	–
[2], arabinose 3086420 nM	0.177 ± 0.0086	0.202 ± 0.029	–	–	–	–	–
[2], arabinose 5555556 nM	0.168 ± 0.053	0.198 ± 0.023	–	–	–	–	–
[2], arabinose 10000000 nM	0.174 ± 0.013	0.184 ± 0.013	–	–	–	–	–

N[C@@H]1CONC1=O [D-cycloserine]
growth, [3]
Settings	drug 7.81 µM	drug 15.62 µM	drug 31.25 µM	drug 62.5 µM	drug 125 µM
arabinose 12 nM	0.367	0.327	0.0519	0.0505	–
arabinose 24 nM	0.363	0.325	0.0523	0.0512	–
arabinose 48 nM	0.367	0.326	0.0519	0.0518	–
arabinose 95 nM	0.358	0.336	0.0543	0.0501	–
arabinose 191 nM	0.376	0.332	0.121	0.0494	–
arabinose 381 nM	0.373	0.348	0.254	0.05	–
arabinose 763 nM	0.382	0.365	0.305	0.0501	–
arabinose 1526 nM	0.38	0.373	0.349	0.131	0.0482
arabinose 3052 nM	0.367	0.373	0.386	0.29	0.0489
arabinose 6104 nM	0.357	0.356	0.411	0.348	0.0678
arabinose 12207 nM	0.329	0.328	0.375	0.378	0.251
arabinose 24414 nM	0.288	0.298	0.315	0.371	–
arabinose 48828 nM	0.285	0.291	0.29	0.341	–
arabinose 97656 nM	0.29	0.284	0.292	0.306	–
arabinose 195312 nM	0.306	0.3	0.311	0.31	–
arabinose 390625 nM	0.318	0.32	0.322	0.327	–
arabinose 781250 nM	0.307	0.304	0.312	0.32	–
arabinose 1562500 nM	0.282	0.283	0.29	0.294	–
arabinose 3125000 nM	0.269	0.264	0.272	0.276	–
arabinose 6250000 nM	0.253	0.247	0.25	0.252	–
arabinose 12500000 nM	0.237	0.234	0.248	0.239	–
arabinose 25000000 nM	0.225	0.229	0.227	0.231	–
arabinose 50000000 nM	0.195	0.204	0.199	0.204	–
arabinose 100000000 nM	0.154	0.163	0.16	0.16	–

CC(C)c1ccc2oc3nc(N)c(C(=O)O)cc3c(=O)c2c1 [Amlexanox]
growth, [3]
Settings	drug 15.62 µM	drug 31.25 µM	drug 62.5 µM	drug 125 µM	drug 250 µM
arabinose 12 nM	0.4	0.356	0.319	0.272	–
arabinose 24 nM	0.391	0.357	0.317	0.266	–
arabinose 48 nM	0.385	0.352	0.318	0.261	–
arabinose 95 nM	0.382	0.348	0.31	0.265	–
arabinose 191 nM	0.377	0.349	0.319	0.262	–
arabinose 381 nM	0.378	0.346	0.309	0.259	–
arabinose 763 nM	0.382	0.348	0.305	0.261	–
arabinose 1526 nM	0.386	0.352	0.304	0.259	0.264
arabinose 3052 nM	0.375	0.357	0.301	0.257	0.264
arabinose 6104 nM	0.367	0.336	0.29	0.262	0.266
arabinose 12207 nM	0.325	0.306	0.278	0.275	0.281
arabinose 24414 nM	0.282	0.276	0.274	0.285	–
arabinose 48828 nM	0.264	0.266	0.28	0.295	–
arabinose 97656 nM	0.254	0.261	0.28	0.289	–
arabinose 195312 nM	0.268	0.273	0.291	0.284	–
arabinose 390625 nM	0.289	0.298	0.305	0.277	–
arabinose 781250 nM	0.31	0.317	0.304	0.268	–
arabinose 1562500 nM	0.312	0.313	0.297	0.265	–
arabinose 3125000 nM	0.307	0.302	0.292	0.259	–
arabinose 6250000 nM	0.301	0.297	0.286	0.255	–
arabinose 12500000 nM	0.302	0.293	0.284	0.248	–
arabinose 25000000 nM	0.298	0.299	0.282	0.235	–
arabinose 50000000 nM	0.286	0.282	0.259	0.213	–
arabinose 100000000 nM	0.216	0.212	0.216	0.16	–
